The NIST ThermoML archive (doi:10.1016/j.tca.2011.01.001)

Columns and labels:
[1] = Molar enthalpy of transition or fusion; conditions: Crystal; DSC

O=C(O)c1ccc(O)c(O)c1 [3,4-dihydroxybenzoic acid]
Conditions | vapor or sublimation pressure [kPa]
381.8 K, Crystal, Torsion effusion method | 6e-05
383 K, Crystal, Torsion effusion method | 6.7e-05
384.5 K, Crystal, Torsion effusion method | 7.7e-05
385.6 K, Crystal, Torsion effusion method | 8.7e-05
387.2 K, Crystal, Torsion effusion method | 0.000104
388.6 K, Crystal, Torsion effusion method | 0.000117
390 K, Crystal, Torsion effusion method | 0.000143
391.4 K, Crystal, Torsion effusion method | 0.00016
392.8 K, Crystal, Torsion effusion method | 0.000191
394.2 K, Crystal, Torsion effusion method | 0.000216
395.4 K, Crystal, Torsion effusion method | 0.000251
396.9 K, Crystal, Torsion effusion method | 0.000286
398.3 K, Crystal, Torsion effusion method | 0.00033
399.8 K, Crystal, Torsion effusion method | 0.000377
401.2 K, Crystal, Torsion effusion method | 0.000465
402.6 K, Crystal, Torsion effusion method | 0.000533
404 K, Crystal, Torsion effusion method | 0.00061
405.4 K, Crystal, Torsion effusion method | 0.000701
406.8 K, Crystal, Torsion effusion method | 0.000804
407.7 K, Crystal, Torsion effusion method | 0.000876
408.9 K, Crystal, Torsion effusion method | 0.000997
485.2 K, Liquid, Non-isothermal TG | 0.819
485.8 K, Liquid, Non-isothermal TG | 0.807
486.2 K, Liquid, Non-isothermal TG | 0.892
486.8 K, Liquid, Non-isothermal TG | 0.868
487.2 K, Liquid, Non-isothermal TG | 0.933
487.7 K, Liquid, Non-isothermal TG | 0.902
488.1 K, Liquid, Non-isothermal TG | 0.974
488.4 K, Liquid, Isothermal TG | 0.983
488.7 K, Liquid, Non-isothermal TG | 0.967
488.8 K, Liquid, Isothermal TG | 1.007
489.1 K, Liquid, Non-isothermal TG | 1.005
489.2 K, Liquid, Isothermal TG | 1.027
489.6 K, Liquid, Isothermal TG | 1.061
489.7 K, Liquid, Non-isothermal TG | 1.033
490 K, Liquid, Isothermal TG | 1.074
490.1 K, Liquid, Non-isothermal TG | 1.129
490.4 K, Liquid, Isothermal TG | 1.092
490.7 K, Liquid, Non-isothermal TG | 1.087
490.8 K, Liquid, Isothermal TG | 1.129
491.1 K, Liquid, Non-isothermal TG | 1.188
491.2 K, Liquid, Isothermal TG | 1.153
491.6 K, Liquid, Isothermal TG | 1.192
491.7 K, Liquid, Non-isothermal TG | 1.162
492 K, Liquid, Isothermal TG | 1.22
492.2 K, Liquid, Non-isothermal TG | 1.221
492.4 K, Liquid, Isothermal TG | 1.254
492.7 K, Liquid, Non-isothermal TG | 1.286
492.8 K, Liquid, Isothermal TG | 1.28
493.1 K, Liquid, Non-isothermal TG | 1.327
493.2 K, Liquid, Isothermal TG | 1.32
493.6 K, Liquid, Isothermal TG | 1.346
493.7 K, Liquid, Non-isothermal TG | 1.298
494 K, Liquid, Isothermal TG | 1.374
494.1 K, Liquid, Non-isothermal TG | 1.375
494.4 K, Liquid, Isothermal TG | 1.381
494.7 K, Liquid, Non-isothermal TG | 1.365
494.8 K, Liquid, Isothermal TG | 1.445
495 K, Liquid, Non-isothermal TG | 1.494
495.2 K, Liquid, Isothermal TG | 1.477
495.6 K, Liquid, Isothermal TG | 1.482
495.7 K, Liquid, Non-isothermal TG | 1.435
495.9 K, Liquid, Non-isothermal TG | 1.566
496 K, Liquid, Isothermal TG | 1.529
496.4 K, Liquid, Isothermal TG | 1.557
496.7 K, Liquid, Non-isothermal TG | 1.477
496.8 K, Liquid, Isothermal TG | 1.584
496.9 K, Liquid, Non-isothermal TG | 1.652
497.2 K, Liquid, Isothermal TG | 1.607
497.6 K, Liquid, Isothermal TG | 1.636
497.7 K, Liquid, Non-isothermal TG | 1.634
498 K, Liquid, Isothermal TG | 1.682
498 K, Liquid, Non-isothermal TG | 1.745
498.4 K, Liquid, Isothermal TG | 1.699
498.8 K, Liquid, Isothermal TG | 1.728
498.8 K, Liquid, Non-isothermal TG | 1.703
499 K, Liquid, Non-isothermal TG | 1.71
499.1 K, Liquid, Isothermal TG | 1.751
499.5 K, Liquid, Isothermal TG | 1.764
499.7 K, Liquid, Non-isothermal TG | 1.817
499.9 K, Liquid, Non-isothermal TG | 1.882
500 K, Liquid, Isothermal TG | 1.815
500.4 K, Liquid, Isothermal TG | 1.865
500.7 K, Liquid, Isothermal TG | 1.879
500.7 K, Liquid, Non-isothermal TG | 1.858
501 K, Liquid, Non-isothermal TG | 1.898
501.2 K, Liquid, Isothermal TG | 1.914
501.6 K, Liquid, Isothermal TG | 1.939
501.7 K, Liquid, Non-isothermal TG | 1.899
502 K, Liquid, Isothermal TG | 1.945
502 K, Liquid, Non-isothermal TG | 1.962
502.4 K, Liquid, Isothermal TG | 2.003
502.7 K, Liquid, Non-isothermal TG | 1.95
502.8 K, Liquid, Isothermal TG | 2.047
503.1 K, Liquid, Non-isothermal TG | 2.033
503.8 K, Liquid, Non-isothermal TG | 2.014
504.1 K, Liquid, Non-isothermal TG | 2.184
504.7 K, Liquid, Non-isothermal TG | 2.179
505 K, Liquid, Non-isothermal TG | 2.292
505.7 K, Liquid, Non-isothermal TG | 2.217

Conditions | Normal melting temperature [°C]
Crystal, DTA | 201.8

Conditions | Molar enthalpy of transition or fusion [kcal/mol]
[1] | 8.13
